Assays:
[1] = system: pancreatic carcinoma cells (DAN-G); experiment: Apoptosis in pancreatic carcinoma cells; format: cell-based; conditions: comparable experiments
Procedure: In contrast to conventional glucocorticoids, the steroid WIL 071 can induce apoptosis also in pancreatic carcinoma cells.
The DNA fragmentation was measured by flow cytometry, see FIG. 11. The experiments were performed in triplicate. The error bars show the standard deviations of the measured values of three independent experiments.
The standard treatment for pancreatic carcinoma includes 5-fluorouracil.

Nalm-6 cells = experiment: Half-maximal apoptosis induction (AC50) in Nalm-6 cells; format: cell-based; conditions: Homo sapiens; Nalm-6, 72 h, flow cytometry; read-out: Biological effect: half-maximal apoptosis induction (AC50)
Procedure: Apoptosis Induction in Nalm-6 Cells after Treatment with WIL-071 or Different Steroid Derivatives.
(§1) The cells were incubated in 6-well plates with 1.0·10^5 cells/mL in two milliliters of medium with the respective steroid derivative in different concentrations. The included solvent control (DMSO) served as a control, which was subtracted from all the other measured values, in order not to take into account the spontaneous apoptosis of the cells that takes place independently of the concentration of active ingredient. After 72 h, a modified cell cycle analysis was performed, in order to quantify the proportion of apoptotic cells by flow cytometry. For each concentration of the steroid, the respective mean values f standard deviations, n=3 (*: p<0.05 vs. DMSO, t test) were determined. Using the curve of the dose-effect relationship (steroid concentration−apoptosis induction) formed from these measured values, the steroid concentration at which apoptosis was triggered in 50% of the tested leukemia cells was read.

[2] = system: prednisolone-resistant leukemia cells; experiment: Overcoming of prednisolone resistance; format: cell-based; conditions: 72 h
Procedure: as §1
Prednisolone resistance is said to be overcome if the induction of apoptosis in prednisolone-resistant leukemia cells is as high as it is in normal leukemia cells.

[3] = Tolerability (dose escalation, MTD) in an animal model; format: in vivo, NOG-F (Taconic) mice
Procedure: An incremental increase of dose of the three substances Wil-071, Wil-232 and Wil-369 was performed in 8-week-old female NOG-F (Taconic) mice. Different mice were administered one of up to seven different doses of the test substances. The start was on day 1 with the lowest dose of 10 mg/kg. […] All in all, if possible, the doses 10, 20, 40, 80, 100, 150 and 200 mg/kg are tested. Subsequently, the maximum tolerable dose (MTD) was administered to three more animals, and these were subsequently observed for one week, in order to be able to observe any developing symptoms. For this purpose, the animals were observed and weighed on a daily basis. The body weight is considered an indicator of the general condition of the animals.
(§2) For the MTD experiment, Wil-071 was dissolved in 100% DMSO, and then diluted 1:50 with a 20% (w/v) 2-hydroxypropyl-beta-cyclodextrin (HPβCD) solution. Thus, 200 μL of injection solution (per mouse) of a 40 mg/kg dose could be achieved. For 80, 100 and 150 mg/kg, the DMSO proportion was increased to up to 4% (v/v) in the final injection solution. In addition, ultrasound had to be employed, and the sample had to be heated at 60° C. for up to 45 min. 200 mg/kg was reached only as a milky suspension. […] Therefore, Wil-071 can be considered non-toxic up to 150 mg/kg. The final MTD could not be determined because of the insufficient solubility.
For 100 mg/kg of Wil-232, the end concentration of DMSO in the injection solution was 2%. In order to dissolve Wil-232, the sample also had to be treated with ultrasound, and heated at 60° C. The dose of 150 mg/kg was achieved only with 4% DMSO, and 200 mg/kg was achieved only as a suspension. […] Otherwise, there were no signs of toxicity, so that the substance can be considered tolerable up to 150 mg/kg. In this case too, a final MTD cannot be determined because of insufficient solubility.
Using a DMSO stock and 20% HPβCD solution, a maximum of only 5 mg/ml was dissolved. A further increase could not be achieved even with more DMSO or HPβCD. Thus, above the dose of 40 mg/kg, a higher injection volume was injected in order to reach the corresponding dose. […] For the tolerability under the current solubility conditions, a value of […] is to be applied. This dose was injected into the 8 animals for pharmacokinetics. In this case too, a final MTD cannot be determined because of insufficient solubility.

[4] = Distribution in serum, brain and liver after injection; format: in vivo, NOG-F (Taconic) mice
Procedure: Following the determination of the MTD, eight animals were again injected the MTD of the substances, and after 1, 2, 8 and 24 hours, 2 animals each were killed. For pharmacokinetics, the liver, brain and serum of the animals were shock-frosted in liquid nitrogen, and analyzed (see Example 15).
The samples obtained in Example 4 were examined for the contents of the substances. Since WIL-369 can be hydrolyzed to WIL-071, both WIL-369 and WIL-071 were determined in the samples. As far as these substances were detectable in the samples, this is represented in the Figures.

[5] = format: physicochemical
Procedure: All three substances are sparingly soluble in tested injection solutions, so that the maximal dose could not exceed 200 mg/kg.
as §2
For 100 mg/kg of Wil-232, the end concentration of DMSO in the injection solution was 2%. In order to dissolve Wil-232, the sample also had to be treated with ultrasound, and heated at 60° C. The dose of 150 mg/kg was achieved only with 4% DMSO, and 200 mg/kg was achieved only as a suspension. […] In this case too, a final MTD cannot be determined because of insufficient solubility.
Using a DMSO stock and 20% HPβCD solution, a maximum of only 5 mg/ml was dissolved. […] In this case too, a final MTD cannot be determined because of insufficient solubility.

Work on `O=c1[nH]cc(F)c(=O)[nH]1` [5-fluorouracil] yielded an apoptosis ([1]; at 30 μM) of 24.9% and an apoptosis ([1]; at 50 μM) of 21.2%.

`O=C1[O][Pt]2([NH][C@@H]3CCCC[C@H]3[NH]2)[O]C1=O` [Oxaliplatin] showed an apoptosis ([1]; at 50 μM) of 14%.

In the case of `CC(C)CCC[C@@H](C)[C@H]1CC[C@H]2[C@@H]3[C@H]4OC[C@@]5(CC[C@H](OS(C)(=O)=O)C[C@]5(O)C4=O)[C@H]3CC[C@]12C` [TAS-S389, (7β,19-epoxy-5α-hydroxy-6-on-cholestan-3β-yl) ester of methanesulfonic acid], the AC50 (Nalm-6 cells) is reported as roughly 20 µM and the EC50 [2] is reported as roughly 30 µM.

`CC(C)CCC[C@@H](C)[C@H]1CC[C@H]2[C@@H]3[C@H]4OC[C@@]5(CC=CC[C@]5(O)C4=O)[C@H]3CC[C@]12C` [TAS-S392, 7β,19-epoxy-5α-hydroxy-cholest-2-en-6-one] gave an AC50 (Nalm-6 cells) of roughly 46 µM and an EC50 [2] of roughly 39 µM.

`CC(C)CCC[C@@H](C)[C@H]1CC[C@H]2[C@@H]3[C@H]4OC[C@@]5(CCCC[C@]5(O)C4=O)[C@H]3CC[C@]12C` [TAS-S398, 7β,19-epoxy-5α-hydroxy-cholestan-6-one] gave an AC50 (Nalm-6 cells) of roughly 80 µM and an EC50 [2] of roughly 67 µM.

Work on `C=C1[C@@H]2OC[C@@]3(CC[C@H](O)C[C@]13O)[C@H]1CC[C@]3(C)[C@@H]([C@H](C)CCCC(C)C)CC[C@H]3[C@H]21` [TAS-S399, 7β,19-epoxy-6-methylen-cholest-3β,5α-diol] yielded an AC50 (Nalm-6 cells) of 50 µM and an EC50 [2] of roughly 75 µM.

Molecule `CC(C)CCC[C@@H](C)[C@H]1CC[C@H]2[C@@H]3[C@H]4OC[C@@]5(CC[C@@H](O)C[C@]5(O)C4=O)[C@H]3CC[C@]12C` [TAS-S403, 3α,5α-dihydroxy-7β,19-epoxy-cholestan-6-one] has an AC50 (Nalm-6 cells) of 100 µM and an EC50 [2] of 20 µM.

Work on `CC(=O)O[C@@H]1CC[C@@]23CO[C@@H](C(=O)[C@@]2(O)C1)[C@H]1[C@@H]2CC[C@H]([C@H](C)CCCC(C)C)[C@@]2(C)CC[C@@H]13` [TAS-S405, 3α-acetoxy-5α-hydroxy-7β,19-epoxy-cholestan-6-one] yielded an AC50 (Nalm-6 cells) of 90 µM and an EC50 [2] of roughly 20 µM.

For `CC(C)CCC[C@@H](C)[C@H]1CC[C@H]2[C@@H]3[C@H]4OC[C@@]5(CC[C@H](O)C[C@]5(O)C4(C)O)[C@H]3CC[C@]12C` (stereo partly drawn) [TAS-S406, 7β,19-epoxy-6α-methylcholestan-3β,5α,6β-triol], the AC50 (Nalm-6 cells) was 13 µM and the EC50 [2] was roughly 17 µM.

With `COC(=O)O[C@H]1CC[C@@]23CO[C@@H](C(=O)[C@@]2(O)C1)[C@H]1[C@@H]2CC[C@H]([C@H](C)CCCC(C)C)[C@@]2(C)CC[C@@H]13` [WIL357, 7β,19-epoxy-5α-hydroxy-6-on-cholestan-3β-yl-methyl carbonate] the AC50 (Nalm-6 cells) was greater than 50 µM and the EC50 [2] was greater than 50 µM.

`CC(C)CCC[C@@H](C)[C@H]1CC[C@H]2[C@@H]3[C@H]4OC[C@@]5(CC[C@H](OC(=O)CNC(=O)OC(C)(C)C)C[C@]5(O)C4=O)[C@H]3CC[C@]12C` [WIL360, N-Boc-glycin (7β,19-epoxy-5α-hydroxy-6-on-cholestan-3β-yl) ester] gave an AC50 (Nalm-6 cells) greater than 20 µM and an EC50 [2] of 20 µM.

`CC(C)CCC[C@@H](C)[C@H]1CC[C@H]2[C@@H]3[C@H]4OC[C@@]5(CC[C@H](OC(=O)CO)C[C@]5(O)C4=O)[C@H]3CC[C@]12C` [WIL364, (7β,19-epoxy-5α-hydroxy-6-on-cholestan-3β-yl) ester of glycolic acid] showed an AC50 (Nalm-6 cells) of roughly 18 µM and an EC50 [2] of roughly 17.5 µM.

`C=C(CC(=O)O[C@H]1CC[C@@]23CO[C@@H](C(=O)[C@@]2(O)C1)[C@H]1[C@@H]2CC[C@H]([C@H](C)CCCC(C)C)[C@@]2(C)CC[C@@H]13)C(=O)OC` [WIL367, 4-(7β,19-epoxy-5α-hydroxy-6-on-cholestan-3β-yl)-1-methyl ester of itaconic acid] showed an AC50 (Nalm-6 cells) of roughly 8 µM and an EC50 [2] of roughly 12.5 µM.

With `COC(=O)/C=C/C(=O)O[C@H]1CC[C@@]23CO[C@@H](C(=O)[C@@]2(O)C1)[C@H]1[C@@H]2CC[C@H]([C@H](C)CCCC(C)C)[C@@]2(C)CC[C@@H]13` [WIL369, (7β,19-epoxy-5α-hydroxy-6-on-cholestan-3β-yl)methyl ester of fumaric acid] the AC50 (Nalm-6 cells) was roughly 3 µM, the EC50 [2] was 5 µM and the mortality ([3]; 100 mg/kg dose group, one animal) was “found dead on day 3 after the injection”. For the same molecule, the behaviour after injection ([3]; 100 mg/kg in twice as large injection volumes) was “the animals lay down on their side for some moments, but recovered quickly”, the “tolerability under the current solubility conditions” value ([3]; mice, injection) was 50 mg/kg and the “distribution in the liver” value [4] was “a quick degradation takes place in the liver; it is the only place where WIL-369 is found”. The maximum dissolved concentration [5] was no more than 5 mg/mL and the solubility [5] was “lowest solubility”.

In the case of `CC(=O)O[C@H]1CC[C@@]23CO[C@@H](C(=O)[C@@]2(O)C1)[C@H]1[C@@H]2CC[C@H]([C@H](C)CCCC(C)C)[C@@]2(C)CC[C@@H]13` [WIL-232, 3β-acetoxy-5α-hydroxy-7β,19-epoxy-cholestan-6-one], the AC50 (Nalm-6 cells) is reported as 25 µM, the EC50 [2] is reported as 17.5 µM and the “outcome of injection of the 200 mg/kg suspension” value ([3]; 200 mg/kg as suspension, signs of pulmonary embolism in section) is reported as “immediate death of the animal”. The “dose up to which non-toxic / tolerable” value ([3]; injection into caudal vein, mice, final MTD not determinable because of solubility) was “up to 150 mg/kg”.

For `CC(C)CCC[C@@H](C)[C@H]1CC[C@H]2[C@@H]3[C@H]4OC[C@@]5(CCC(=O)C[C@]5(O)C4=O)[C@H]3CC[C@]12C` [WIL-241, 5α-hydroxy-7β,19-epoxy-cholestane-3,6-dione], the AC50 (Nalm-6 cells) was 41 µM.

For `CC(C)CCC[C@@H](C)[C@H]1CC[C@H]2[C@@H]3[C@H]4OC[C@@]5(CC[C@H](O)C[C@]5(OCc5ccccc5)C4=O)[C@H]3CC[C@]12C` [WIL-242b, 5α-benzyloxy-3β-hydroxy-7β,19-epoxy-cholestan-6-one], the AC50 (Nalm-6 cells) was 37 µM and the EC50 [2] was 40 µM.

Work on `CC(C)CCC[C@@H](C)[C@H]1CC[C@H]2[C@@H]3[C@H]4OC[C@@]5(CCC(=O)C=C5C4=O)[C@H]3CC[C@]12C` [WIL-270, 7β,19-epoxy-cholest-4-en-3,6-dione] yielded an AC50 (Nalm-6 cells) of 20 µM and an EC50 [2] of 18 µM.

Work on `CC[C@H](CC[C@@H](C)[C@H]1CC[C@H]2[C@@H]3[C@H]4OC[C@@]5(CC[C@H](OC(C)=O)C[C@]5(O)C4=O)[C@H]3CC[C@]12C)C(C)C` [WIL-DK-08, 3β-acetoxy-5α-hydroxy-7β,19-epoxy-stigmastan-6-one] yielded an AC50 (Nalm-6 cells) of 50 µM and an EC50 [2] of roughly 40 µM.

In the case of `CC[C@H](CC[C@@H](C)[C@H]1CC[C@H]2[C@@H]3[C@H]4OC[C@@]5(CC[C@H](O)C[C@]5(O)C4=O)[C@H]3CC[C@]12C)C(C)C` [WIL-DK-09, 3β,5α-dihydroxy-7β,19-epoxy-stigmastan-6-one], the AC50 (Nalm-6 cells) is reported as roughly 15 µM and the EC50 [2] is reported as roughly 38 µM.
